pIC50: −log10 of the molar value. Ends that are not written are not given here.

This passage reports IC50 results from publication PMC2212779 (The Journal of Experimental Medicine, 2005).

For one experiment, the target named is H-2D^b (Mus musculus, UniProt P01899).
H-2D^b, sequence (P01899 25-362): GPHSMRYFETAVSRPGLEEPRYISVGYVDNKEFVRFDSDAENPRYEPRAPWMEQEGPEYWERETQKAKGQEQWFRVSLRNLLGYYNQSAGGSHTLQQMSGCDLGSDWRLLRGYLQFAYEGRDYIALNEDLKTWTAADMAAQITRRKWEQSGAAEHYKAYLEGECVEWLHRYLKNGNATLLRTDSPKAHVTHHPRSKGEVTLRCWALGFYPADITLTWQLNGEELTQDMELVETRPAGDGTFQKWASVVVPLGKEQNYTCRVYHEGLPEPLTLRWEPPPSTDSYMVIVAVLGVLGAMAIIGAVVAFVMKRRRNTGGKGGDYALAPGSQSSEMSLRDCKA
H-2D^b, sequence (P61769 21-119, further chain): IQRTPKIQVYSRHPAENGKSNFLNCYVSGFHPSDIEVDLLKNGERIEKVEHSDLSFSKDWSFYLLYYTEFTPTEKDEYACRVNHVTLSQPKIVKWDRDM
Assay: not given
To be noted: read-out: average IC50 of the radiolabeled standard peptide; cited from earlier work.
For SGPSNTYPEI, the pIC50 was 8.36.

For a further experiment, the target named is H-2K^b (Mus musculus, UniProt P01901). As to the kind of experiment: biochemical. In kind it is binding.
H-2K^b, sequence (P01901 22-369): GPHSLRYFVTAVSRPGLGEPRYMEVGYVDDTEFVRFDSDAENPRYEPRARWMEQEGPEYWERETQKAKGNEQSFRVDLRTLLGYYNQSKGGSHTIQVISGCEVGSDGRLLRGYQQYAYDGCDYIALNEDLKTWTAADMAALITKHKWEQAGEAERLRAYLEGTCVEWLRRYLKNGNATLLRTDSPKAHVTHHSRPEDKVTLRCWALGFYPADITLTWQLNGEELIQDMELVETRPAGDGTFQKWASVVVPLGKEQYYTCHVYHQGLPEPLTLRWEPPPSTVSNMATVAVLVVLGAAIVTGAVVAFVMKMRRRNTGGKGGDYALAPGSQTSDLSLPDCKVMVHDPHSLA
H-2K^b, sequence (P61769 21-119, further chain): as the sequence (P61769 21-119, further chain) above
Details: not given
Consider ISLKNYGI [ISLKNYGI], for which the pIC50 was 7.80.
As for KVEEYCTGL [KVEEYCTGL], the pIC50 is 6.89.
On the same count and under the same terms, then LAVLFINSI [LAVLFINSI], with 7.55; and TSYKFESV [B8R20-27], with 9.72; and WQTMYTNV [WQTMYTNV], with 8.18.

A word on the pIC50: it is the IC50 on a negative log10 scale, so that one unit is a factor of ten.
